Assay results from publication PMC8296985, “A Covalent Calmodulin Inhibitor as a Tool to Study Cellular Mechanisms of K-Ras-Driven Stemness” (Frontiers in Cell and Developmental Biology, 2021).
Like-named read-outs stand apart in the source and are kept apart here.

Tests used:
Assay type in all cases: cell-based
Hs 578T = experiment: 3D spheroid (tumorosphere) formation assay, low attachment, serum-free, alamarBlue; conditions: Homo sapiens
Procedure: (§1) 3D spheroid formation assays were performed in 96-well low-attachment, suspension culture plates (cat. no. 655185, Cellstar, Greiner Bio-One) under serum-free condition. About 1,000 (MDA-MB-231, NCI-H358, and MIA PaCa-2) or 2,500 (Hs 578T) cells per well were seeded in 50 μl of either an RPMI medium (cat. no. 52400-025, Gibco, Thermo Fisher Scientific) (MDA-MB-231, A375, and NCI-H358) or DMEM (cat. no. 41965-039, Gibco, Thermo Fisher Scientific) (Hs 578T and MIA PaCa-2), containing 0.5% MethoCult (cat. no. SF H4636, Stemcell technologies), 1x B27 (cat. no. 17504044, Gibco, Thermo Fisher Scientific), 25 ng/ml EGF (cat. no. E9644, Sigma-Aldrich), and 25 ng/ml FGF (cat. no. RP-8628, Thermo Fisher Scientific). Cells were cultured for 3 days and then treated with compounds or vehicle control (DMSO 0.1% v/v in growth medium) for another 3 days. The cells were supplemented with a fresh growth medium on the third day together with the drug treatment. For knockdown experiments, cells were seeded in 12-well plates and treated with either 50 nM scrambled siRNA (cat. no. 1022076, QIAGEN) or indicated concentrations of siRNAs. Next day, cells were collected by trypsinization and re-plated into 96-well plates for 3D spheroid suspension culture.
(§2) Spheroid formation efficiency was analyzed by an alamarBlue assay reagent (cat. no. DAL1100, Thermo Fisher Scientific). A 10% final volume of the alamarBlue reagent was added to each well of the plate and incubated for 4 h at 37°C. Then the fluorescence intensity was measured using the FLUOstar OPTIMA plate reader (BMG Labtech, Germany) with an excitation wavelength of 560 ± 5 nm and an emission wavelength of 590 ± 5 nm.
(§3) To quantitatively profile the drug sensitivity with a more robust parameter than the IC50 or EC50 values, the drug sensitivity score (DSS) analysis was employed. DSS values are essentially normalized area under the curve (AUC) measures of dose-response inhibition data ([Yadav et al., 2014]). Drug response data files (in Excel) ready for online analysis were prepared according to the example file obtained from the DSS pipeline website, called Breeze^1 ([Potdar et al., 2020]). Either raw fluorescence intensity measurements or normalized % inhibition data (for BRET assay analysis) were uploaded.
(§4) DSS3 was employed to emphasize drugs that obtain their response area over a relatively wide dose window, as compared to drugs that show increased response only at the higher end of the concentration range. After logistic fitting of the dose-response inhibition data, the area under the curve (AUC) was determined as the exact solution. A 10% minimal activity threshold (t) was set. The maximum (Cmax) and minimum (Cmin) concentrations were used for screening of the inhibitors, with Cmax = x2 and x1 concentration with minimal activity t.

MDA-MB-231 = experiment: as above; conditions: for IC50: Homo sapiens; for KRAS/HRAS mutant cell line DSS3 ratio: MDA-MB-231 vs Hs 578T 3D spheroid formation, 0.6–40 μM, numbers above bars Fig. 1A,B
Procedure: as §1, §2, §3, §4

K-RasG12V = K-RasG12V nanoclustering-BRET assay in HEK293-EBNA cells
Procedure: BRET assays were essentially performed as described by others ([Lavoie et al., 2013]; [Bery et al., 2018]). About 100,00–150,000 HEK293-EBNA ([Meissner et al., 2001]) cells were seeded per well of a 12-well plate in 1 ml of DMEM containing 10% FBS and 2 mM L-glutamine and were grown for 24 h. Next day, Rluc8-tagged donor and GFP2-tagged acceptor constructs were transfected into cells using a jetPRIME transfection reagent (cat. no. 114-75, Polyplus). Each well was transfected with about 1 μg of plasmid DNA using 3 μl of the jetPRIME reagent. For BRET donor saturation titration experiments, the concentration of donor plasmid (25 ng) was kept constant, and the concentration of acceptor plasmid was increased from 0 to 500 ng for RasG12V BRET pairs and 0–1,000 ng for K-Ras/CaM BRET pairs. The empty pcDNA3.1(-) plasmid was used to top-up the total DNA load per transfection. After 24 h of transfection, cells were treated with compounds or vehicle control (DMSO 0.2% v/v in a growth medium) at the specified concentration for 24 h or the stipulated time period in case of the time-course experiments. The cells from one well of a 12-well plate were collected, washed, and re-plated in PBS (cat. no. 14190-094, Gibco, Thermo Fisher Scientific) on flat bottom, white 96-well plates (cat. no. 236108, Nunc, Thermo Fisher Scientific) as four technical replicates containing 90 μl of cell suspension per well. Then fluorescence intensity followed by BRET readings were carried out on a Clariostar (BMG Labtech) plate reader at 25°C. The fluorescence intensity (RFU) of GFP2 was measured with excitation at 405 ± 10 nm and emission 515 ± 10 nm; it is proportional to the acceptor concentration [acceptor]. BRET readings were taken well by well by adding 10 μl of 100 μM coelenterazine 400a (cat. no. C-320, GoldBio), the Rluc8 substrate to each well (final concentration of 10 μM) using the injector present in the plate reader. Luminescence emission intensities were simultaneously recorded at 410 ± 40 nm (RLU, proportional to [donor]) and 515 ± 15 nm (BRET signal).
The raw BRET ratio was calculated as the BRET signal measured at 515 nm divided by the emission signal measured at 410 nm (RLU). The BRET ratio was obtained by subtracting the raw BRET ratio by a background BRET signal measured for cells expressing only the donor ([Bacart et al., 2008]) as indicated in the formula below:
For BRET donor saturation titration experiments, the BRET ratio was plotted against the [acceptor]/[donor] ratio. Technical repeat data points were averaged, and data points from all biological repeats were collected into one graph for subsequent fitting. The BRET ratio vs. relative expression data were fitted using a binding saturation equation in the Prism (GraphPad) software to obtain BRETmax and BRET50 using the equation y=BRETmax×x/BRET50+x , where x is the relative expression and y is the BRET ratio. BRETmax represents the maximum saturation BRET signal and depends on the structural parameters (distance, orientation) of the BRET complex. BRET50 corresponds to the ratio of the acceptor construct over the donor construct required to attain 50% of the maximum BRET signal and is a measure of the effective relative affinity between the interacting BRET pair ([Marullo and Bouvier, 2007]).
When applying the DSS analysis to nanoclustering-BRET data, we used mevastatin (10 μM) to obtain the asymptote parameter (a) for the maximal inhibition effect, as it prevents the prenylation of Ras proteins, their plasma membrane trafficking, and therefore nanoclustering. Otherwise, normalized BRET ratio data were converted to % inhibition and then subsequently uploaded onto the Breeze site (see text footnote 1).

[1] = 72 h, Hs 578T (H-RasG12D) 3D tumorosphere, 3 days treatment, read-out: IC50
[2] = Hs 578T 3D tumorosphere, log scale, read-out: logIC50 ± SD (converted)
[3] = 72 h, MDA-MB-231 (K-RasG13D) 3D tumorosphere, 3 days treatment, read-out: IC50
[4] = MDA-MB-231 3D tumorosphere, log scale, read-out: logIC50 ± SD (converted)

## CC(C)c1ccc2cc(C(F)(F)F)c(=O)c3c(N4CCCCC4)c(C=O)c(c1)c23 [Compound 1]
Hs 578T; [1]
  IC50: 22.5 µM
Hs 578T; [2]
  IC50: 22.4 µM
MDA-MB-231; [3]
  IC50: 12 µM
MDA-MB-231; [4]
  IC50: 12 µM
MDA-MB-231
  KRAS/HRAS mutant cell line DSS3 ratio: 4.1
K-RasG12V; 1 at 50 μM, within 10 min of treatment
  reduction in the K-RasG12V BRET signal: 38%
K-RasG12V; Calmirasone1 used at 2.5-fold higher concentration, Figures 3F, 7B
  higher effectivity than calmidazolium in cell biological experiments: > 25 fold

## CC(C)=C[C@H]1C[C@H](C)[C@]2(CC[C@]3(C)C[C@H]4[C@H](C(=O)C[C@@]4(C)O)/C(C=O)=C\C[C@H]32)O1 [OphA, Ophiobolin A, reference compound]
Hs 578T; [1]
  IC50: 1.8 µM
Hs 578T; [2]
  IC50: 1.78 µM
MDA-MB-231; [3]
  IC50: 0.3 µM
MDA-MB-231; [4]
  IC50: 0.288 µM
MDA-MB-231
  KRAS/HRAS mutant cell line DSS3 ratio: 3.1
K-RasG12V; 2-h treatment timeframe, OphA 10 μM, mevastatin 10 μM
  time-dependent change of K-RasG12V nanoclustering-BRET signal: no significant BRET change
K-RasG12V; 24 h, calmidazolium 20 μM, OphA 2.5 μM, prostratin 10 μM, mevastatin 10 μM, benzazulenones 20 μM
  K-Ras selective reduction of nanoclustering-BRET (K-Ras vs H-Ras): 1.2 fold
